Source: PubChem BioAssay (NCI)
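Cells were grown in 96-well plates and exposed to each compound for 48 hours at five concentrations; endpoints were interpolated linearly between bracketing concentrations, or set to the highest concentration if not reached. TGI: concentration producing complete growth inhibition.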

How the values were obtained:
Assay in all cases: NCI tumour cell line growth inhibition, 48 h
PC-3 prostate = system: PC-3 prostate
EKVX NSCLC = system: EKVX NSCLC
HCT-116 colon = system: HCT-116 colon
SK-MEL-2 melanoma = system: SK-MEL-2 melanoma
OVCAR-5 ovarian = system: OVCAR-5 ovarian
MDA-MB-435 = system: MDA-MB-435
SNB-19 CNS = system: SNB-19 CNS
A498 renal = system: A498 renal
BT-549 breast = system: BT-549 breast
MDA-N = system: MDA-N
OVCAR-4 ovarian = system: OVCAR-4 ovarian
NCI-H522 lung = system: NCI-H522 lung
HCC-2998 colon = system: HCC-2998 colon
RXF 393 renal = system: RXF 393 renal
MCF7 breast = system: MCF7 breast
CAKI-1 renal = system: CAKI-1 renal
TK-10 renal = system: TK-10 renal
SW-620 colon = system: SW-620 colon
786-0 renal = system: 786-0 renal
A549 NSCLC = system: A549 NSCLC
UACC-257 melanoma = system: UACC-257 melanoma
M14 melanoma = system: M14 melanoma
SR leukemia = system: SR leukemia
HT29 colon = system: HT29 colon
MDA-MB-231 breast = system: MDA-MB-231 breast
KM12 colon = system: KM12 colon
K-562 leukemia = system: K-562 leukemia
SK-MEL-28 melanoma = system: SK-MEL-28 melanoma
SK-MEL-5 melanoma = system: SK-MEL-5 melanoma
SF-539 CNS = system: SF-539 CNS
IGROV1 ovarian = system: IGROV1 ovarian
HL-60(TB) leukemia = system: HL-60(TB) leukemia
UACC-62 melanoma = system: UACC-62 melanoma
U251 CNS = system: U251 CNS
NCI-H23 lung = system: NCI-H23 lung
SF-268 CNS = system: SF-268 CNS
ACHN renal = system: ACHN renal
MOLT-4 leukemia = system: MOLT-4 leukemia
HS 578T breast = system: HS 578T breast
HOP-62 NSCLC = system: HOP-62 NSCLC
NCI-H226 lung = system: NCI-H226 lung
HOP-92 NSCLC = system: HOP-92 NSCLC
RPMI-8226 leukemia = system: RPMI-8226 leukemia
NCI/ADR-RES ovarian = system: NCI/ADR-RES ovarian
CCRF-CEM leukemia = system: CCRF-CEM leukemia
OVCAR-8 ovarian = system: OVCAR-8 ovarian
MALME-3M melanoma = system: MALME-3M melanoma
SNB-75 CNS = system: SNB-75 CNS
COLO 205 colon = system: COLO 205 colon
HCT-15 colon = system: HCT-15 colon
UO-31 renal = system: UO-31 renal
T-47D breast = system: T-47D breast
NCI-H460 lung = system: NCI-H460 lung
LOX IMVI melanoma = system: LOX IMVI melanoma
DU-145 prostate = system: DU-145 prostate
OVCAR-3 ovarian = system: OVCAR-3 ovarian
SK-OV-3 ovarian = system: SK-OV-3 ovarian
SF-295 CNS = system: SF-295 CNS

## O=C(/C=C/c1cc(F)ccc1F)OCCc1ccccc1
PC-3 prostate
  TGI: > 100 µM
EKVX NSCLC
  TGI: > 100 µM
HCT-116 colon
  TGI: > 100 µM
SK-MEL-2 melanoma
  TGI: > 100 µM
OVCAR-5 ovarian
  TGI: > 100 µM
MDA-MB-435
  TGI: > 100 µM
SNB-19 CNS
  TGI: > 100 µM
A498 renal
  TGI: > 100 µM
BT-549 breast
  TGI: > 100 µM
MDA-N
  TGI: > 100 µM
OVCAR-4 ovarian
  TGI: 47.4 µM
NCI-H522 lung
  TGI: > 100 µM
HCC-2998 colon
  TGI: > 100 µM
RXF 393 renal
  TGI: > 100 µM
MCF7 breast
  TGI: > 100 µM
CAKI-1 renal
  TGI: > 100 µM
TK-10 renal
  TGI: > 100 µM
SW-620 colon
  TGI: > 100 µM
786-0 renal
  TGI: > 100 µM
A549 NSCLC
  TGI: > 100 µM
UACC-257 melanoma
  TGI: > 100 µM
M14 melanoma
  TGI: > 100 µM
SR leukemia
  TGI: > 100 µM
HT29 colon
  TGI: > 100 µM
MDA-MB-231 breast
  TGI: > 100 µM
KM12 colon
  TGI: > 100 µM
K-562 leukemia
  TGI: > 100 µM
SK-MEL-28 melanoma
  TGI: > 100 µM
SK-MEL-5 melanoma
  TGI: > 100 µM
SF-539 CNS
  TGI: > 100 µM
IGROV1 ovarian
  TGI: > 100 µM
HL-60(TB) leukemia
  TGI: 79.9 µM
UACC-62 melanoma
  TGI: > 100 µM
U251 CNS
  TGI: > 100 µM
NCI-H23 lung
  TGI: > 100 µM
SF-268 CNS
  TGI: > 100 µM
ACHN renal
  TGI: > 100 µM
MOLT-4 leukemia
  TGI: > 100 µM
HS 578T breast
  TGI: > 100 µM
HOP-62 NSCLC
  TGI: > 100 µM
NCI-H226 lung
  TGI: > 100 µM
HOP-92 NSCLC
  TGI: > 100 µM
RPMI-8226 leukemia
  TGI: > 100 µM
NCI/ADR-RES ovarian
  TGI: > 100 µM
CCRF-CEM leukemia
  TGI: > 100 µM
OVCAR-8 ovarian
  TGI: > 100 µM
MALME-3M melanoma
  TGI: > 100 µM
SNB-75 CNS
  TGI: > 100 µM
COLO 205 colon
  TGI: > 100 µM
HCT-15 colon
  TGI: > 100 µM
UO-31 renal
  TGI: > 100 µM

## CCOC(=O)C(Cc1ccc2c(c1)CCC2)Cc1ccc2c(c1)CCC2
PC-3 prostate
  TGI: > 100 µM
EKVX NSCLC
  TGI: > 100 µM
HCT-116 colon
  TGI: > 100 µM
SK-MEL-2 melanoma
  TGI: > 100 µM
OVCAR-5 ovarian
  TGI: > 100 µM
MDA-MB-435
  TGI: > 100 µM
SNB-19 CNS
  TGI: > 100 µM
A498 renal
  TGI: > 100 µM
T-47D breast
  TGI: > 100 µM
MDA-N
  TGI: > 100 µM
OVCAR-4 ovarian
  TGI: > 100 µM
NCI-H522 lung
  TGI: > 100 µM
HCC-2998 colon
  TGI: > 100 µM
NCI-H460 lung
  TGI: > 100 µM
LOX IMVI melanoma
  TGI: 47.8 µM
RXF 393 renal
  TGI: > 100 µM
DU-145 prostate
  TGI: > 100 µM
MCF7 breast
  TGI: > 100 µM
CAKI-1 renal
  TGI: > 100 µM
TK-10 renal
  TGI: > 100 µM
SW-620 colon
  TGI: > 100 µM
786-0 renal
  TGI: > 100 µM
A549 NSCLC
  TGI: > 100 µM
UACC-257 melanoma
  TGI: > 100 µM
M14 melanoma
  TGI: > 100 µM
SR leukemia
  TGI: 60.1 µM
HT29 colon
  TGI: > 100 µM
MDA-MB-231 breast
  TGI: > 100 µM
K-562 leukemia
  TGI: 85.7 µM
SK-MEL-28 melanoma
  TGI: > 100 µM
SK-MEL-5 melanoma
  TGI: 40.3 µM
OVCAR-3 ovarian
  TGI: > 100 µM
SF-539 CNS
  TGI: > 100 µM
IGROV1 ovarian
  TGI: > 100 µM
SK-OV-3 ovarian
  TGI: > 100 µM
HL-60(TB) leukemia
  TGI: 58.2 µM
U251 CNS
  TGI: > 100 µM
NCI-H23 lung
  TGI: > 100 µM
SF-268 CNS
  TGI: > 100 µM
ACHN renal
  TGI: > 100 µM
SF-295 CNS
  TGI: > 100 µM
MOLT-4 leukemia
  TGI: 41.1 µM
HS 578T breast
  TGI: > 100 µM
HOP-62 NSCLC
  TGI: > 100 µM
HOP-92 NSCLC
  TGI: > 100 µM
RPMI-8226 leukemia
  TGI: > 100 µM
NCI/ADR-RES ovarian
  TGI: > 100 µM
CCRF-CEM leukemia
  TGI: > 100 µM
OVCAR-8 ovarian
  TGI: > 100 µM
MALME-3M melanoma
  TGI: > 100 µM
SNB-75 CNS
  TGI: > 100 µM
HCT-15 colon
  TGI: > 100 µM
UO-31 renal
  TGI: > 100 µM
